# Assay results: patent US8017611B2, “Pyridine and pyrazine derivatives -083” (AstraZeneca AB, priority 2007, dated 2011)
# Biological target: T1, recombinant Axl tyrosine kinase (Homo sapiens, UniProt P30530)
# T1 construct: encompassing amino acids 473 to 894 of Axl; GST (N); made in house; host or cells: SF126 insect cells
# T1 sequence (P30530 473-894): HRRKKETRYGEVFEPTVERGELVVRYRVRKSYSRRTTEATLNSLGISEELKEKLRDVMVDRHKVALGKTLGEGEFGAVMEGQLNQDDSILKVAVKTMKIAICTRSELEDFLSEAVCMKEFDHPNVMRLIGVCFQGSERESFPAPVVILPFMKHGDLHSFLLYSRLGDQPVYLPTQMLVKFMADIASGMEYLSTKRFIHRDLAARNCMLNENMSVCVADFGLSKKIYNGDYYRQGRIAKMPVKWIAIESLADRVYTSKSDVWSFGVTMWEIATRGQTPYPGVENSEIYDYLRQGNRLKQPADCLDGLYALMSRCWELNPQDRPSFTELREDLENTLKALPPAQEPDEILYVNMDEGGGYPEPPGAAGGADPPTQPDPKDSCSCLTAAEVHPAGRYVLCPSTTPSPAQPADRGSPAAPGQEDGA
# Experiment: In vitro Axl kinase assay (AlphaScreen), Test (a)
# Assay type: biochemical
# Conditions: for % Axl tyrosine kinase inhibition at 1 μM concentration / inhibition at 1 µM: test compound at 1 μM, first value quoted; for inhibition at 1 µM: read-out: % Axl tyrosine kinase inhibition at 1 μM concentration
SMILES,% Axl tyrosine kinase inhibition at 1 μM concentration,further results
NC(=O)CCN1CCN(C(=O)c2ccc(-c3cnc(N)c(-c4nc5cccnc5o4)c3)cc2)CC1 [Example 45A.71],93.7%,–
CCN1CCCC1CNC(=O)c1ccc(-c2cnc(N)c(-c3nc4cccnc4o3)c2)cc1 (stereo not shown) [Example 45A.72],99.6%,–
CN1CCN(CCNC(=O)c2ccc(-c3cnc(N)c(-c4nc5cccnc5o4)c3)cc2)CC1 [Example 45A.73],96.0%,–
Nc1ncc(-c2ccc(C(=O)N3CCN4CCCC4C3)cc2)cc1-c1nc2cccnc2o1 (stereo not shown) [Example 45A.74],99.9%,–
CN(C)C(=O)[C@@H]1CCCN1C(=O)c1ccc(-c2cnc(N)c(-c3nc4cccnc4o3)c2)cc1 [Example 45A.75],91.6%,–
CN(C)[C@@H]1CCN(C(=O)c2ccc(-c3cnc(N)c(-c4nc5cccnc5o4)c3)cc2)C1 [Example 45A.76],96.7%,–
CN(C)[C@H]1CCN(C(=O)c2ccc(-c3cnc(N)c(-c4nc5cccnc5o4)c3)cc2)C1 [Example 45A.77],96.1%,–
NCC1CCN(C(=O)c2ccc(-c3cnc(N)c(-c4nc5cccnc5o4)c3)cc2)CC1 [Example 45A.78],97.7%,–
Nc1ncc(-c2ccc(C(=O)N3CCC(N)C3)cc2)cc1-c1nc2cccnc2o1 (stereo not shown) [Example 45A.79],99.0%,–
CNC1CCN(C(=O)c2ccc(-c3cnc(N)c(-c4nc5cccnc5o4)c3)cc2)C1 (stereo not shown) [Example 45A.80],99.7%,–
CNCCCNC(=O)c1ccc(-c2cnc(N)c(-c3nc4cccnc4o3)c2)cc1 [Example 45A.81],99.6%,–
Nc1ncc(-c2ccc(C(=O)N3CCCNCC3)cc2)cc1-c1nc2cccnc2o1 [Example 45A.82],98.4%,–
Nc1ncc(-c2ccc(C(=O)NCCN3CCNCC3)cc2)cc1-c1nc2cccnc2o1 [Example 45A.83],98.9%,–
Nc1ncc(-c2ccc(C(=O)NC3CCCNC3)cc2)cc1-c1nc2cccnc2o1 (stereo not shown) [Example 45A.84],99.1%,–
CNCCN(C)C(=O)c1ccc(-c2cnc(N)c(-c3nc4cccnc4o3)c2)cc1 [Example 45A.85],99.8%,–
Nc1ncc(-c2ccc(C(=O)N3CCC(C4CCNCC4)CC3)cc2)cc1-c1nc2cccnc2o1 [Example 45A.86],95.8%,–
Nc1ncc(-c2ccc(C(=O)N3CCC4(CCCNC4)CC3)cc2)cc1-c1nc2cccnc2o1 [Example 45A.87],77.4%,–
Nc1ncc(-c2ccc(C(=O)N3CCC[C@H](N)C3)cc2)cc1-c1nc2cccnc2o1 [Example 45A.88],99.8%,–
Nc1ncc(-c2ccc(C(=O)N3CCC4(CCNC4)CC3)cc2)cc1-c1nc2cccnc2o1 [Example 45A.89],91.7%,–
Nc1ncc(-c2ccc(C(=O)NC[C@@H]3CCCN3)cc2)cc1-c1nc2cccnc2o1 [Example 45A.90],98.9%,–
Nc1ncc(-c2ccc(C(=O)N3CCCC4(CCNCC4)C3)cc2)cc1-c1nc2cccnc2o1 [Example 45A.91],96.3%,–
NCC[C@H]1CCCN(C(=O)c2ccc(-c3cnc(N)c(-c4nc5cccnc5o4)c3)cc2)C1 [Example 45A.92],99.7%,–

SMILES,% Axl tyrosine kinase inhibition at 1 μM concentration,further results
Nc1ncc(-c2ccc(C(=O)NC[C@H]3CCCNC3)cc2)cc1-c1nc2cccnc2o1 [Example 45A.93],99.3%,–
Nc1ncc(-c2ccc(C(=O)N3CC4CNCC4C3)cc2)cc1-c1nc2cccnc2o1 (stereo not shown) [Example 45A.94],98.9%,–
Nc1ncc(-c2ccc(C(=O)N3CCCC(N)CC3)cc2)cc1-c1nc2cccnc2o1 (stereo not shown) [Example 45A.95],99.5%,–
CN(C(=O)c1ccc(-c2cnc(N)c(-c3nc4cccnc4o3)c2)cc1)C1CCNCC1 [Example 45A.96],99.1%,–
Nc1ncc(-c2ccc(C(=O)N3CCC(CN4CCNCC4)CC3)cc2)cc1-c1nc2cccnc2o1 [Example 45A.98],97.6%,–
CNC1CCC(NC(=O)c2ccc(-c3cnc(N)c(-c4nc5cccnc5o4)c3)cc2)CC1 (stereo not shown) [Example 45A.99],95.9%,–
Nc1ncc(-c2ccc(C(=O)N3CCC4(CCNCC4)CC3)cc2)cc1-c1nc2cccnc2o1 [Example 45A.100],95.3%,–
Nc1ncc(-c2ccc(C(=O)NCCCN3CCNCC3)cc2)cc1-c1nc2cccnc2o1 [Example 45A.101],99.1%,–
Nc1ncc(-c2ccc(C(=O)NC3CCNCC3)cc2)cc1-c1nc2cccnc2o1 [Example 45A.103],97.3%,–
Nc1ncc(-c2ccc(C(=O)NCC3CCCCN3)cc2)cc1-c1nc2cccnc2o1 (stereo not shown) [Example 45A.104],99.8%,–
Nc1ncc(-c2ccc(C(=O)N3CC(N)C3)cc2)cc1-c1nc2cccnc2o1 [Example 45A.105],98.4%,–
Nc1ncc(-c2ccc(C(=O)NC3CCNC3)cc2)cc1-c1nc2cccnc2o1 (stereo not shown) [Example 45A.106],98.4%,–
Nc1ncc(-c2ccc(C(=O)N3CCC(N)CC3)cc2)cc1-c1nc2cccnc2o1 [Example 45A.107],95.0%,–
CN(C)CCN(C)C(=O)c1ccc(-c2cnc(N)c(-c3nc4ncccc4o3)c2)cc1 [Example 45B.1],98.1%,–
"Nc1ncc(-c2cccc(S(=O)(=O)CCC3CCNCC3)c2)cc1-c1nc2ccccc2o1 [Example 46, 3-(1,3-Benzoxazol-2-yl)-5-[3-[2-(4-piperidyl)ethylsulphonyl]phenyl]pyridin-2-amine]",–,inhibition at 1 µM: 95.9%
"Nc1ncc(-c2cccc(S(=O)(=O)N3CCOCC3)c2)cc1-c1nc2ccccc2o1 [Example 47, 3-(1,3-Benzoxazol-2-yl)-5-(3-morpholinosulphonylphenyl)pyridin-2-amine]",–,"inhibition at 30 µM (test compound at 30 μM, read-out: % of Axl tyrosine kinase activity inhibited at a concentration of 30 μM): 99.5%"
"CCNS(=O)(=O)c1cccc(-c2cnc(N)c(-c3nc4ccccc4o3)c2)c1 [Example 48, 3-[6-Amino-5-(1,3-benzoxazol-2-yl)-3-pyridyl]-N-ethyl-benzenesulphonamide]",–,inhibition at 1 µM: 93.5%
"Nc1ncc(-c2cccc(N3CCOCC3)c2)nc1-c1nc2ccccc2s1 [Example 49, 3-(1,3-Benzothiazol-2-yl)-5-(3-morpholinophenyl)pyrazin-2-amine]",–,inhibition at 1 µM: 73.4%
"Nc1ncc(-c2cccc(CC(=O)O)c2)nc1-c1nc2ccc(F)cc2o1 [Example 50, 2-[3-[5-amino-6-(6-fluoro-1,3-benzoxazol-2-yl)pyrazin-2-yl]phenyl]acetic acid]",–,inhibition at 1 µM: 47.6%
"CNC(=O)[C@@H]1C[C@@H](n2cc(-c3cnc(N)c(-c4nc5ccccc5o4)c3)cn2)CN1 [Example 51, (2S,4R)-4-[4-[6-amino-5-(1,3-benzoxazol-2-yl)-3-pyridyl]pyrazol-1-yl]-N-methyl-pyrrolidine-2-carboxamide]",–,inhibition at 1 µM: 99.9%
"CCN1CCC(n2cc(-c3cnc(N)c(-c4nc5ncccc5o4)c3)cn2)CC1 [Example 52, 5-[1-(1-ethyl-4-piperidyl)pyrazol-4-yl]-3-oxazolo[4,5-b]pyridin-2-yl-pyridin-2-amine]",–,inhibition at 1 µM: 99.8%

# The next lines start with results.
% Axl tyrosine kinase inhibition at 1 μM concentration,SMILES,further results
96.1%,CN1CCN(C(=O)c2ccc(-c3cnc(N)c(-c4nc5ncccc5o4)c3)cc2)CC1 [Example 45B.2],–
97.7%,Nc1ncc(-c2ccc(C(=O)NCCN3CCOCC3)cc2)cc1-c1nc2ncccc2o1 [Example 45B.3],–
99.6%,Nc1ncc(-c2ccc(C(=O)N3CCN(Cc4ccccn4)CC3)cc2)cc1-c1nc2ncccc2o1 [Example 45B.4],–
99.9%,Nc1ncc(-c2ccc(C(=O)N3CCC(N4CCCC4)CC3)cc2)cc1-c1nc2ncccc2o1 [Example 45B.5],–
95.9%,CN(C)C(=O)CN1CCN(C(=O)c2ccc(-c3cnc(N)c(-c4nc5ncccc5o4)c3)cc2)CC1 [Example 45B.6],–
99.7%,CN(C)C(=O)CN1CCC(n2cc(-c3cnc(N)c(-c4nc5ncccc5o4)c3)cn2)CC1 [Example 53.1],–
97.8%,CNC(=O)CN1CCC(n2cc(-c3cnc(N)c(-c4nc5ncccc5o4)c3)cn2)CC1 [Example 53.2],–
98.8%,NC(=O)CN1CCC(n2cc(-c3cnc(N)c(-c4nc5ncccc5o4)c3)cn2)CC1 [Example 53.3],–
99.2%,CC(C)N1CCC(n2cc(-c3cnc(N)c(-c4nc5ncccc5o4)c3)cn2)CC1 [Example 53.4],–
100.0%,Nc1ncc(-c2cnn(C3CCN(CCO)CC3)c2)cc1-c1nc2ncccc2o1 [Example 53.5],–
100.0%,NC(=O)CN1CCC(n2cc(-c3cnc(N)c(-c4nc5ccccc5o4)c3)cn2)CC1 [Example 53.6],–
99.9%,CN(C)C(=O)CN1CCC(n2cc(-c3cnc(N)c(-c4nc5ccccc5o4)c3)cn2)CC1 [Example 53.8],–
